We go through 6 molecules from paper PMC3978507, “Fusion of a Short HA2-Derived Peptide Sequence to Cell-Penetrating Peptides Improves Cytosolic Uptake, but Enhances Cytotoxic Activity” (Pharmaceuticals, 2009).

One data set concerns MCF-7 cells. In words: MTT cell viability assay. The format is cell-based, human. The note with it: 24 h, 1-100 µM peptide. As for the experimental part: (§1) We used the following cell lines: HEK 293 (human embryonal kidney), HeLa (human cervix carcinoma), MCF-7 (human breast adenocarcinoma), HT-29 (human colon adenocarcinoma), K-562 (human chronic myeloid leukemia) and Jurkat (human T cell leukemia). All cells were cultured in 75 cm^2 culture flasks at 37 °C and 5% CO2 in a humidified atmosphere and split when confluent. For HEK 293 cells Dulbecco’s Modified Eagle Medium/ Ham’s F12 (without L-glutamine) containing 15% heat-inactivated foetal calf serum was used. HeLa and Jurkat cells were grown in supplemented RPMI 1640 (with L-glutamine) with 10% heat-inactivated foetal calf serum, MCF-7 cells in Dulbecco’s Modified Eagle Medium/ Ham’s F12 (without L-glutamine) containing 10% heat-inactivated foetal calf serum and 1% glutamine, and HT-29 and K-562 cells in Dulbecco’s Modified Eagle Medium supplemented with 10% heat-inactivated foetal calf serum. Detachment and dissociation of confluent cells was done by Trp/EDTA (0.05%/0.02% in PBS). For microscopic studies cells were seeded in glass-bottomed 8-well plates, whereas cells for cell viability and flow cytometric studies were cultured in 96-well plates.
On the technique in general: Formazan colour is commonly taken as a measure of viable cells.

In another data set the test system is HT-29 cells. In words: MTT cell viability assay. The class given is cell-based, human. Conditions: 24 h, 1-100 µM peptide. On the procedure:
as §1

In a further data set the test system is Jurkat cells. In words: Flow cytometric analysis of cell viability (FDA/PI staining). The class given is cell-based, human. Conditions: flow cytometry FDA/PI, 24 h, 1-50 µM peptide. As for the experimental part: as §1
(§2) Untreated cells were used as negative control.
Background: Flow cytometry measures light scatter and fluorescence of single cells or particles in a stream.

Another data set concerns K562 cells. The data set is described as above. The format is cell-based, human. The note with it: flow cytometry FDA/PI, 24 h, 1-50 µM peptide. As for the experimental part:
as §1, §2

For data set [1], the system named is HeLa cells. As to the kind of experiment: Flow cytometric studies of peptide uptake. The format is cell-based, human. Conditions: for uptake of chimeric peptide versus parent CPP: CF-labelled, 10 min, several peptide concentrations, flow cytometry. As for the experimental part: Finally, cells were diluted with cold HBSS and inspected.
For data set [2], the system named is HeLa cells. As to the kind of experiment: Resazurin-based cell viability assay. Conditions: 24 h incubation, up to 100 µM peptide. Also on record: species or system human. On the procedure: as §1
The test system of data set [3] is several cell lines (MCF-7, HT-29, HEK293, K562, Jurkat). The note with it: for cytotoxicity, several cell lines: several cell lines (MCF-7, HT-29, HEK293, K562, Jurkat), concentrations of up to 100 µM.
Description: The effect of the peptides on the viability of HT-29 and MCF-7 cells was checked by using the MTT-assay. Therefore, cells were cultivated to subconfluency under standard conditions in 96-well plates. The treatment was performed with 1-100 µM of the peptides for 24 h. Then, 10-fold stock solution of MTT reagent (5 mg/mL in medium) was added to each sample, and the cells were incubated for further 2 h. Formazan crystals were solubilised with 200 µL DMSO per well. After incubation for 15 min at 400 rpm and RT, absorbance was measured with a Tecan Saphire plate reader (560 nm, reference filter 630 nm).
The viability after peptide treatment (1-50 µM peptide solutions) for 24 h of the suspension cell lines Jurkat and K562 was tested by using flow cytometry. For this purpose, 2.5 × 10^5 cells per sample were stained with fluorescein diacetate (FDA) (0.04 µg/100 µL cell suspension) and propidium iodide (PI) (25 µg/100 µL cell suspension) in FACS buffer (1% BSA in PBS). Samples were incubated for 15 min at RT in the dark, washed and resuspended in FACS buffer.
Viability of the stained cells was analysed using a FACS®Calibur and CellQuest Pro analysis software (both Becton Dickinson, Franklin Lakes, USA) and is represented as relative cell number of viable cells. Untreated cells were used as negative control. Excitation and emission settings were 488 nm and 525–550 nm for FDA and 488 nm and 564–606 nm for PI staining.
Data set [4] has as its system MDA-MB-231 breast cancer cells. Conditions: cited from earlier work. From the text:
(§3) Therefore, we further elucidated the cytotoxicity profiles of the chimeric peptides for several cell lines (including MCF-7, HeLa and HT-29 cells, as well as suspension cell lines K562 and Jurkat).

The next data set has as its system K562 erythrocytes. The note with it: cited from earlier work.
Description: as §3

Positions of bridges follow the written chain, without caps; N, C: chain ends. Residues, ends and D or L forms follow the SMILES beside them. Chains are numbered I, II in the order given. Some results are limits rather than exact numbers.

One may read the IC50 as the concentration that gives 50% inhibition. Low values mean higher potency, high ones lower potency. With `CC(C)C[C@H](NC(=O)CN)C(=O)N[C@@H](CC(C)C)C(=O)N[C@@H](CCC(=O)O)C(=O)N[C@@H](C)C(=O)N[C@@H](CC(C)C)C(=O)N[C@@H](C)C(=O)N[C@@H](CCC(=O)O)C(=O)N[C@@H](CC(C)C)C(=O)N[C@@H](CC(C)C)C(=O)N[C@@H](CCC(=O)O)C(=O)NCC(=O)N[C@@H](CCCNC(=N)N)C(=O)N[C@@H](CCCCN)C(=O)N[C@@H](CCCCN)C(=O)N[C@@H](CCCNC(=N)N)C(=O)N[C@@H](CCCNC(=N)N)C(=O)N[C@@H](CCC(N)=O)C(=O)N[C@@H](CCCNC(=N)N)C(=O)N[C@@H](CCCNC(=N)N)C(=O)N[C@@H](CCCNC(=N)N)C(=O)N1CCC[C@H]1C(=O)N1CCC[C@H]1C(=O)N[C@@H](CCC(N)=O)C(N)=O` [N-E5L-Tat(48-60)] (H-GLLEALAELLEGRKKRRQRRRPPQ-NH2), the IC50 in the data set on MCF-7 cells is 39.3 ± 9.4 µM; with HT-29 cells it was 90.9 ± 0.2 µM; with Jurkat cells it was 7.9 ± 0.8 µM; with K562 cells, greater than 30 µM; in the data set on HeLa cells [2] it was 29.4 ± 3.9 µM. Besides, the “uptake of chimeric peptide versus parent CPP” value with HeLa cells [1] is “higher uptake values”.
With `CC[C@H](C)[C@H](NC(=O)[C@H](C)NC(=O)[C@@H](NC(=O)[C@H](CCC(N)=O)NC(=O)[C@@H]1CCCN1C(=O)[C@H](Cc1ccccc1)NC(=O)[C@@H](NC(=O)[C@H](Cc1c[nH]cn1)NC(=O)[C@H](Cc1ccccc1)NC(=O)[C@H](CCCCNC(=O)[C@H](C)NC(=O)[C@H](Cc1ccccc1)NC(=O)[C@H](CCCCN)NC(=O)[C@H](CCCNC(=N)N)NC(=O)[C@H](CCCCN)NC(=O)[C@H](CCCCN)NC(=O)[C@H](CCCCN)NC(=O)[C@@H]1CCCN1C(=O)[C@H](C)NC(=O)[C@H](CCCCN)NC(=O)[C@H](CCCNC(=N)N)NC(=O)[C@H](CCCCN)NC(=O)[C@@H](N)CCCCN)NC(=O)[C@H](CCC(=O)O)NC(=O)[C@H](CC(C)C)NC(=O)[C@H](CC(C)C)NC(=O)[C@H](CCC(=O)O)NC(=O)[C@H](C)NC(=O)[C@H](CC(C)C)NC(=O)[C@H](C)NC(=O)[C@H](CCC(=O)O)NC(=O)[C@H](CC(C)C)NC(=O)[C@H](CC(C)C)NC(=O)CN)[C@@H](C)O)[C@@H](C)O)C(=O)NCC(=O)N[C@H](C(=O)NCC(=O)N[C@@H](C)C(=O)N1CCC[C@H]1C(N)=O)C(C)C` [N-E5L-hCT(18-32)-k7] (I: H-GLLEALAELLEKFHTFPQTAIGVGAP-NH2 / II: H-KKRKAPKKKRKFA; amide I:12-II:C; N-terminus assumed), the half-inhibitory concentration (IC50) with MCF-7 cells is 37.8 ± 6.5 µM; in the data set with HT-29 cells, 59.1 ± 0.1 µM; in the data set with Jurkat cells, 11.4 ± 4.2 µM; in the data set on K562 cells it was greater than 30 µM; with HeLa cells [2], 33.1 ± 3.3 µM. The “uptake of chimeric peptide versus parent CPP” value in the data set with HeLa cells [1] was “higher uptake values”.
Regarding `CC[C@H](C)[C@H](NC(=O)[C@H](CCCCN)NC(=O)[C@H](CC(N)=O)NC(=O)[C@H](CCCNC(=N)N)NC(=O)[C@H](Cc1ccccc1)NC(=O)[C@H](CCCCN)NC(=O)[C@H](CCCNC(=N)N)NC(=O)[C@H](CC(C)C)NC(=O)[C@H](CCCNC(=N)N)NC(=O)[C@H](CCCCN)NC(=O)[C@H](CCCNC(=N)N)NC(=O)[C@H](CC(C)C)NC(=O)CNC(=O)[C@H](CCC(=O)O)NC(=O)[C@H](CC(C)C)NC(=O)[C@H](CC(C)C)NC(=O)[C@H](CCC(=O)O)NC(=O)[C@H](C)NC(=O)[C@H](CC(C)C)NC(=O)[C@H](C)NC(=O)[C@H](CCC(=O)O)NC(=O)[C@H](CC(C)C)NC(=O)[C@H](CC(C)C)NC(=O)CN)C(=O)N[C@@H](CCCCN)C(=O)N[C@@H](CCC(=O)O)C(=O)N[C@@H](CCCCN)C(N)=O` [N-E5L-sC18] (H-GLLEALAELLEGLRKRLRKFRNKIKEK-NH2), the half-maximal inhibitory concentration (IC50) is 30.8 ± 4.1 µM with MCF-7 cells; 72.1 ± 0.1 µM in the data set on HT-29 cells; 7.3 ± 1.7 µM with Jurkat cells; greater than 30 µM in the data set on K562 cells; 31.8 ± 1.9 µM in the data set with HeLa cells [2]. Also, the “uptake of chimeric peptide versus parent CPP” value with HeLa cells [1] is on record as “higher uptake values”.
For the molecule GLLEALAELLE [N-E5L], the “cellular translocation of the peptide alone” value in the data set on HeLa cells [1] (CF-labelled analogue, 60 min, several concentrations, fluorescence microscopy and flow cytometry) is “unable to translocate in cells”. Besides, the “cytotoxicity, several cell lines” value in data set [3] is on record as “no cytotoxicity was observed”.
As to GLRKRLRKFRNKIKEK [sC18], the “cytotoxicity, several cell lines” value in [3] was “no cytotoxicity was observed”.
As for GRKKRRQRRRPPQ [Tat(48-60)], the membrane toxicity result in [4] is “no membrane toxicity”. For the same molecule, in the data set with K562 erythrocytes, the haemolytic effect entry is reported as “no haemolytic effect”. Besides, in [3] (all tested cell lines, data not shown), the “cytotoxic effects, all tested cell lines” value was “no cytotoxic effects”.
